Data: patent US20240415834A1, “LURBINECTEDIN AND ATEZOLIZUMAB COMBINATIONS” (priority 2021, published 2024)
pIC50: −log10 of the molar value. Like-named read-outs stand apart in the source and are kept apart here.

How the values were obtained:
NCl-H460 = assay: MTT short-term viability assay, 72 hours exposure; assay type: cell-based; settings: Lung, read-out: IG50 (the source's name)
Procedure: (§1) The antineoplastic in vitro activity of lurbinectedin was evaluated in a panel of solid tumour cell lines (some of which are shown in Table 1), which were exposed to a range of lurbinectedin concentrations for 72 hours and then assayed for viability by a MTT short-term assay.

MiaPaca-2 = assay: MTT short-term viability assay, 72 hours exposure; assay type: cell-based; settings: Homo sapiens, MIA PaCa-2, Pancreas, read-out: IG50 (the source's name)
Procedure: as §1

A2780 = assay: MTT short-term viability assay, 72 hours exposure; assay type: cell-based; settings: Homo sapiens, Ovarian, read-out: IG50 (the source's name)
Procedure: as §1

A-549 = assay: MTT short-term viability assay, 72 hours exposure; assay type: cell-based; settings: Homo sapiens, A549, Lung, read-out: IG50 (the source's name)
Procedure: as §1

HCT 116 = assay: MTT short-term viability assay, 72 hours exposure; assay type: cell-based; settings: Homo sapiens, Colon, read-out: IG50 (the source's name)
Procedure: as §1

MDA-MB-231 = assay: MTT short-term viability assay, 72 hours exposure; assay type: cell-based; settings: Homo sapiens, Breast, read-out: IG50 (the source's name)
Procedure: as §1

LoVo = assay: MTT short-term viability assay, 72 hours exposure; assay type: cell-based; settings: Homo sapiens, Colon, read-out: IG50 (the source's name)
Procedure: as §1

PANC-1 = assay: MTT short-term viability assay, 72 hours exposure; assay type: cell-based; settings: Homo sapiens, Pancreas, read-out: IG50 (the source's name)
Procedure: as §1

HT-29 = assay: MTT short-term viability assay, 72 hours exposure; assay type: cell-based; settings: Homo sapiens, Colon, read-out: IG50 (the source's name)
Procedure: as §1

NCl-H23 = assay: MTT short-term viability assay, 72 hours exposure; assay type: cell-based; settings: Lung, read-out: IG50 (the source's name)
Procedure: as §1

MCF-7 = assay: MTT short-term viability assay, 72 hours exposure; assay type: cell-based; settings: Homo sapiens, MCF7, Breast, read-out: IG50 (the source's name)
Procedure: as §1

IGROV-1 = assay: MTT short-term viability assay, 72 hours exposure; assay type: cell-based; settings: Homo sapiens, Ovarian, read-out: IG50 (the source's name)
Procedure: as §1

BT-474 = assay: MTT short-term viability assay, 72 hours exposure; assay type: cell-based; settings: Homo sapiens, Breast, read-out: IG50 (the source's name)
Procedure: as §1

[1] = PM1183-A-008-13 phase I study, interaction with aprepitant; assay type: in vivo, human; settings: in the presence of aprepitant (CYP3A4 inhibitor), patients
Text: PM01183 clearance was reduced by 50%, approximately, in the presence of aprepitant. Although all patients eventually recovered, the use of aprepitant is currently forbidden in all PM01183 studies.

[2] = tested on: Capan-1 pancreas xenograft; assay: In vivo antitumour activity in xenografts; set-up: species or system athymic mice; settings: Pancreas Capan-1; Q7d × 3; 0.18 mg/kg/day (0.54 mg/m^2/day); optimal day D-61
[3] = rat, in vivo
[4] = Cardiovascular parameters (ABP, HR, lead II ECG) after single bolus injection in dogs; assay type: in vivo; settings: six hours, doses up to 0.01 mg/kg (0.2 mg/m^2)
[5] = tested on: human-derived tumour xenografts; assay: Tumour susceptibility in xenografts of human-derived tumour types; assay type: in vivo, athymic mice; settings: single bolus i.v. at rodent MTD 0.3 mg/kg
[6] = tested on: UM-UC-3 bladder xenograft; assay: In vivo antitumour activity in xenografts; set-up: species or system athymic mice; settings: Bladder UM-UC-3; Qd × 5 × 2; 0.06 mg/kg/day (0.18 mg/m^2/day); optimal day D-23
[7] = Pooled logistic regression analysis of phase II data, review of recommended dose; assay type: in vivo, human; settings: q3 wk, BSA-based dosing, to limit severe myelosuppression
Procedure: Owing to these findings, all actively recruiting and planned studies now use BSA-based dosing to limit severe myelosuppression. The original RD of 4.0 mg/m^2 q3 wk has been reviewed and reduced to 3.2 mg/m^2 q3 wk for the same reason.

[8] = tested on: patients with advanced and refractory solid tumours; set-up: species or system human; settings: in vivo
Procedure: The completed PM1183-A-001-08 phase I trial evaluated i.v. lurbinectedin in human patients for the first time, when infused over one hour (h) every three weeks (q3 wk) in 31 patients with advanced and refractory solid tumours. Among these, 15 (48.4%) patients were treated at the defined recommended dose (RD). The RD for phase II studies was defined at a PM01183 dose of 4.0 mg/m^2 q3 wk-equivalent to a 7.0 mg flat dose (FD) q3 wk. […] No signs of cumulative toxicity were observed.

CYP isoforms = assay: In vitro metabolism studies with human microsomes; assay type: in vitro ADME; settings: followed by CYP2E1, CYP2D6 and CYP2C9
Text: The estimated contribution of the other CYP isoenzymes to the PM01183 metabolism is considered to be negligible. Therefore, concomitant drugs which induce or inhibit any of these cytochromes, especially CYP3A4, should be carefully monitored or avoided, whenever is possible.

[9] = dog, in vivo
[10] = Toxicity studies: HR and ECGs of dogs after single or repeated administration; assay type: in vivo; settings: doses up to 0.05 mg/kg (1 mg/m^2)
[11] = tested on: patients with metastatic SCLC; settings: cited from earlier work
[12] = tested on: broad selection of tumour-derived cell lines; assay: In vitro cytotoxic effects against tumour-derived cell lines; assay type: cell-based; settings: read-out: median IC50
PC-3 prostate xenograft = assay: In vivo antitumour activity in xenografts; set-up: species or system athymic mice; settings: Prostate PC-3; Q7d × 3; 0.18 mg/kg/day (0.54 mg/m^2/day); optimal day D-27
A2780 ovary xenograft = assay: In vivo antitumour activity in xenografts; set-up: species or system athymic mice; settings: Q7d × 3, 0.18 mg/kg/day (0.54 mg/m^2/day), optimal day D-17
in vivo = settings: rodent, iv
LXFL 529 lung xenograft = assay: In vivo antitumour activity in xenografts; set-up: species or system athymic mice; settings: Lung LXFL 529; Q7d × 3; 0.18 mg/kg/day (0.54 mg/m^2/day); optimal day D-28
[13] = tested on: MDA-MB-231 breast xenograft; assay: In vivo antitumour activity in xenografts; set-up: species or system athymic mice; settings: Breast MDA-MB-231; Q7d × 3; 0.18 mg/kg/day (0.54 mg/m^2/day); optimal day D-34
MX-1 breast xenograft = assay: In vivo antitumour activity in xenografts; set-up: species or system athymic mice; settings: Breast MX-1; Q7d × 3; 0.18 mg/kg/day (0.54 mg/m^2/day); optimal day D-21
patients with ES-SCLC = settings: IMpower133; cited from earlier work

## COc1ccc2[nH]c3c(c2c1)CCN[C@]31CS[C@@H]2c3c(OC(C)=O)c(C)c4c(c3[C@H](COC1=O)N1[C@@H]2[C@H]2c3c(cc(C)c(OC)c3O)C[C@@H]([C@@H]1O)N2C)OCO4 [PM01183, lurbinectedin]
NCl-H460
  pIC50: 8.80
MiaPaca-2
  pIC50: 8.96
A2780
  pIC50: 8.80
A-549
  pIC50: 8.89
HCT 116
  pIC50: 7.19
MDA-MB-231
  pIC50: 8.46
LoVo
  pIC50: 8.70
PANC-1
  pIC50: 8.54
HT-29
  pIC50: 8.62
NCl-H23
  pIC50: 9.27
MCF-7
  pIC50: 8.77
IGROV-1
  pIC50: 8.01
BT-474
  pIC50: 8.89
[1]
  clearance reduction: ~50%
[2]
  T/C %: 61%
[3]
  main target organs of toxicity: bone marrow and the liver
[4]
  effects on heart, ABP, lead II ECG variables (PR, QT, QTcF, QTcV, QRS), ECG gross morphology or rhythm: no effects
[5]
  antitumour activity against bladder, pancreas and prostate xenografts: more moderate antitumour profile
[5]; different time points
  antitumour activity against breast, lung and ovarian xenografts: statistically significant antitumour activity (p<0.05)
[6]
  T/C %: 58%
[7]
  recommended dose, reviewed and reduced: 3.2 mg/m^2
[8]; human
  dose-limiting toxicity (DLT) at the RD: grade 4 thrombocytopenia
  inter-patient variability in the area under the curve [AUC]: > 50.0%
  recommended dose, equivalent flat dose (FD): 7.0 mg
[8]; human, iv
  recommended dose (RD) for phase II studies: 4.0 mg/m^2
[8]
  PK dose linearity: linearity across all explored doses
  tolerability at the RD: generally well tolerated
CYP isoforms
  major CYP isoform involved in the metabolism: CYP3A4
[9]
  main target organs of toxicity: bone marrow and the liver
[10]
  electrophysiological alterations in HR and ECGs: no electrophysiological alterations
[11]; independent review committee, 95% CI 4.9, 6.4
  median response duration: 5.1 months
[11]; independent review committee, 95% CI 22%, 40%
  ORR: 30%
[11]; investigator assessment RECIST 1.1, 105 patients, 3.2 mg/m^2 i.v. every 21 days, 95% CI 26%, 45%
  ORR: 35%
[11]; investigator assessment, 95% CI 4.1, 6.4
  median response duration: 5.3 months
[12]
  pIC50: ~10.00
PC-3 prostate xenograft
  T/C %: 65%
A2780 ovary xenograft
  T/C %: 34%
In vivo
  MTD: 0.3 mg/kg
LXFL 529 lung xenograft
  T/C %: 5%
[13]
  T/C %: 40%
MX-1 breast xenograft
  T/C %: 0%

## atezolizumab: humanized IgG1 monoclonal antibody that targets human PD-L1
Patients with ES-SCLC
  most common adverse reaction reported in ≥20% of patients: fatigue/asthenia, nausea, alopecia, constipation and decreased appetite
